Experimental data published in patent US20240366594A1, “Small Molecule Inhibitors of Formation of Neutrophil-Derived Extracellular Traps (NETosis) and Uses Thereof” (The Brigham and Women's Hospital, Inc., priority 2021, published 2024).

Tested on: human neutrophils
Assay: Citrullinated histone H3 (CitH3) NET induction in PMA-stimulated human neutrophils
Assay type: cell-based
Conditions: for NET induction, measured as CitH3 staining: drugs 10, 2, 0.4, 0.08 μM or GSK484 10 μM for 1 h, then 1 μM PMA 3 h, FIGS. 1A and 5D
Method: FIGS. 1A-H. Class I/II HDACs drive NET formation • (A and B) Freshly purified human (A) or mouse (B) neutrophils were treated with the indicated HDAC inhibitors at different doses (10, 2, 0.4, 0.08 μM), or with GSK484 (10 μM), for 1 h and then stimulated with 1 μM PMA for 3 h. Cells were fixed and stained with anti-citrullinated histone H3 (CitH3) antibody. NETosis induction was measured as the level of anti-CitH3 fluorescent signal. PMA alone represents 100% of NET induction. “-”: Cells treated with the highest dose of the indicated drug but not activated with PMA. • (C and D) Human neutrophils were treated, or not, with ricolinostat or GSK484 and then stimulated with 1 μM PMA. NETosis induction was measured as area of nuclei stained with DAPI. (C) 3D reconstruction of nuclei in each treatment (grid size 7.8 μm). (D) Quantification of DAPI signal from multiple fields of view (D) (n=9 for unstimulated, not pretreated with any drug [NT] and ricolinostat, n=7 for GSK484). • (E and F) Human neutrophils were treated as in (C-D), and immunoblot analysis of the indicated proteins was performed. Relative quantification of band intensity was analyzed with ImageJ software (F). White violins plots depict the quantification of histone H3 acetylation; red violin plots depict the quantification of histone H3 citrullination. Immunoblot in E is representative of four independent experiments. Gasdermin D NT, gasdermin D N terminal; pMLKL, phospho-MLKL. • (G) Human (left) or murine (right) neutrophils were treated, or not, with ricolinostat (10 μM) and then stimulated with 1 μM PMA for 3 h. ROS production was measured by luminescence with luminol-HRP. Histograms represent the total amount of ROS produced overtime. • (H) Murine neutrophils were treated, or not, with ricolinostat (10 μM) and then stimulated with fluorescent E. coli at the indicated multiplicity of infection (MOI) for 1 h. The histogram represents the percentage of neutrophils positive for E. coli staining. Graphs show mean±SEM. Statistics were calculated using one-way ANOVA (A, B, D) and two-way ANOVA (F, G, H) (*p<0.05; **p<0.01; ****p<0.0001. n.s., not significant). Statistics refers to the comparison with neutrophils stimulated with PMA alone (A, B). Gray stars represent comparison of all experimental groups with the unstimulated control, and black stars represent comparison between drug-treated groups and cells treated with PMA only (NT) (D). See also FIGS. 5A-J.
FIGS. 5A-J. Class I/II HDACs drive NET formation. • A) Quantification of extracellular DNA released by neutrophils treated, or not, with 1 μM GSK484 for 1 h and then stimulated with 1 μM PMA for 4 hours. Unstimulated, neutrophils not treated with drugs were used as a control. • B) Freshly purified human neutrophils were treated with the indicated HDAC inhibitors at different doses (0.08, 0.4, 2 and 10 μM) for 1 hour. Extracellular DNA release was assessed in the supernatant 3 hours after PMA stimulation. The dotted line represents the amount of DNA released from neutrophils treated with PMA alone. “-”: cells treated with the highest dose of the indicated drug but not activated with PMA. • C) Freshly purified human neutrophils were stimulated for 1 h, 3 h or 5 h. Cells were fixed and stained with an anti-CitH3 antibody. NETosis induction was measured as level of anti-CitH3 fluorescent signal. 5h-PMA treatment represents 100% NET induction. • D) Representative images of freshly isolated human neutrophils treated or not with 10 μM of the indicated drugs and stimulated with 1 μM PMA for 3 hours. Cells were fixed and then stained for CitH3 (red) and nuclei (blue). Scale bar=100 μm. • E) Murine neutrophils were treated with ricolinostat or GSK484 and then stimulated with […] for 3 hours. NET induction was measured as in (C). […]

SMILES	NET induction, measured as CitH3 staining	NET formation (level of CitH3), two independent donors (10, 2, 0.4, 0.08 μM for 1 h, then 1 μM PMA, FIGS. 5H, 5I)	NETosis (anti-CitH3 signal), comparison of class I/IIb and class IIb selective inhibitors (drugs 10, 2, 0.4, 0.08 μM 1 hour, then 1 μM PMA 3 hours, FIG. 5F)
COc1cc(C(=O)N2CC[C@@H](O)[C@@H](N)C2)cc2nc(-c3cc4ccccc4n3CC3CC3)n(C)c12 [GSK484]	dramatically reduced NET induction	–	–
O=C(CCCCCCNC(=O)c1cnc(N(c2ccccc2)c2ccccc2)nc1)NO [ricolinostat]	prevented NET release in a dose-dependent manner with an efficacy comparable with GSK484	inhibited NET formation to a comparable extent	class I/IIb HDAC inhibition prevented NETosis
